Data reported in the Kinase Knowledgebase extract (Sharma et al. 2016).

target: CDK2 (human) (UniProt P24941); experiment: Enzyme Assay

| SMILES | Ki |
| --- | --- |
| O=c1[nH][nH]c2cc(SC3COCC(Nc4ccccn4)C3)ccc12 (stereo not given) | < 1000 nM |
| O=C(CC(=O)Oc1ccc2c(=O)[nH][nH]c2c1)Nc1ccccn1 | < 1000 nM |
| O=c1[nH][nH]c2ccc(-c3nc(Nc4cc(-c5ccccc5)[nH]n4)c4ccccc4n3)c(C(F)(F)F)c12 | < 1000 nM |
| Cn1cnc(NC2CCCC(Sc3ccc4c(=O)[nH][nH]c4c3)C2)c1 (stereo not given) | < 1000 nM |
| NCCOc1cccc2c(Nc3n[nH]c4ccccc34)nc(-c3ccc4[nH][nH]c(=O)c4c3C(F)(F)F)nc12 | < 1000 nM |
| O=C(CCNc1cc(C2CC2)[nH]n1)Nc1ccc2c(=O)[nH][nH]c2c1 | < 1000 nM |
| Cn1cnc(NC2CCCC2CSc2ccc3c(=O)[nH][nH]c3c2)c1 (stereo not given) | < 1000 nM |
| Cc1cc(Nc2nc(COc3ccc4c(=O)[nH][nH]c4c3)nc3c2CN(Cc2ccccc2)CC3)n[nH]1 | < 1000 nM |
| O=c1[nH][nH]c2cc(Nc3cccc(Nc4cc(C5CC5)[nH]n4)n3)ccc12 | < 1000 nM |
| O=c1[nH][nH]c2cc(SCC3CCCC3Nc3cc(C4CC4)[nH]n3)ccc12 (stereo not given) | < 1000 nM |
| O=c1[nH][nH]c2cc(CCCC(Nc3cc(C4CC4)[nH]n3)c3ccccc3)ccc12 (stereo not given) | < 1000 nM |
| Cc1cnc(NC(CCSc2ccc3c(=O)[nH][nH]c3c2)c2ccccc2)s1 (stereo not given) | < 1000 nM |
| Cc1cc(Nc2nc(Sc3ccc4c(=O)[nH][nH]c4c3)nc3cc([N+](=O)[O-])ccc23)n[nH]1 | < 1000 nM |
| Cc1cc(Nc2cc(C(C)(C)OCCN(C)C)nc(Sc3ccc4c(=O)[nH][nH]c4c3)n2)n[nH]1 | < 1000 nM |
| O=c1[nH][nH]c2cc(Oc3cccc(Nc4cc(C5CC5)[nH]n4)n3)ccc12 | < 1000 nM |
| O=c1[nH][nH]c2cc(CCCCNc3ccccn3)ccc12 | < 1000 nM |
| O=c1[nH][nH]c2cc(NC3CCC(Nc4cc(C5CC5)[nH]n4)C3)ccc12 (stereo not given) | < 1000 nM |
| COCCCc1cc(Nc2nc(-c3ccc4[nH][nH]c(=O)c4c3)nc3ccccc23)n[nH]1 | < 1000 nM |
| O=c1[nH][nH]c2cc(Nc3nc(Nc4n[nH]c5cccc(F)c45)c4ccccc4n3)ccc12 | < 1000 nM |
| CCc1cc(Nc2cnnc(-c3ccc4[nH][nH]c(=O)c4c3)n2)n[nH]1 | < 1000 nM |
| O=c1[nH][nH]c2cc(SCCCNc3cc(C4CC4)[nH]n3)ccc12 | < 1000 nM |
| CC(C)(C)c1cc(Nc2cc(-c3cccc([N+](=O)[O-])c3)nc(Nc3ccc4c(=O)[nH][nH]c4c3)n2)n[nH]1 | < 1000 nM |
| O=c1[nH][nH]c2cc([C@@H]3C[C@H]3c3nc(Nc4n[nH]c5ccccc45)c4ccccc4n3)ccc12 | < 1000 nM |
| CC(C)(C)OC(=O)n1[nH]c(=O)c2cc(Nc3nc(Nc4cc(C5CC5)[nH]n4)c4ccccc4n3)ccc21 | < 1000 nM |

| SMILES | Ki |
| --- | --- |
| O=c1[nH][nH]c2cc(CCC3CCC(Nc4nccnn4)C3)ccc12 (stereo not given) | < 1000 nM |
| O=c1[nH][nH]c2ccc(-c3nc(Nc4n[nH]c5cc(=O)n(-c6ccccc6)nc45)c4ccccc4n3)cc12 | < 1000 nM |
| NCCc1cc(Nc2n[nH]c3ccccc23)nc(-c2ccc3[nH][nH]c(=O)c3c2C(F)(F)F)n1 | < 1000 nM |
| O=c1[nH][nH]c2cc(SC3CCCC(Nc4nccnn4)C3)ccc12 (stereo not given) | < 1000 nM |
| O=c1[nH][nH]c2ccc(-c3nc(Nc4n[nH]c5ccccc45)c4cccnc4n3)c(C(F)(F)F)c12 | < 1000 nM |
| O=c1[nH][nH]c2cc(Nc3nc(Nc4n[nH]c5ncccc45)c4ccccc4n3)ccc12 | < 1000 nM |
| Cc1cnc(NC2CCCC(Oc3ccc4c(=O)[nH][nH]c4c3)C2)s1 (stereo not given) | < 1000 nM |
| Cc1cc(Nc2nc(Nc3ccc4c(=O)[nH][nH]c4c3)nc3cccc(C)c23)n[nH]1 | < 1000 nM |
| O=c1[nH][nH]c2ccc(-c3nc(Nc4n[nH]c5ccccc45)c4ccccc4n3)c([N+](=O)[O-])c12 | < 1000 nM |
| Cc1cc(Nc2cc(-c3cc4c(=O)[nH][nH]c4cc3Cl)nc3c2CCCC3)n[nH]1 | < 1000 nM |
| O=c1[nH][nH]c2cc(Nc3cccc(Nc4ccccn4)c3)ccc12 | < 1000 nM |
| O=c1[nH][nH]c2ccc(C3CCC(Nc4nccnn4)C3)cc12 (stereo not given) | < 1000 nM |
| Cn1cnc(NCCC(=O)Cc2ccc3c(=O)[nH][nH]c3c2)c1 | < 1000 nM |
| Cc1cnc(NCCONc2ccc3c(=O)[nH][nH]c3c2)s1 | < 1000 nM |
| O=c1[nH][nH]c2ccc(C3CCC(Nc4ccccn4)C3)cc12 (stereo not given) | < 1000 nM |
| O=c1[nH][nH]c2cc(CCCC(Nc3nccnn3)c3ccccc3)ccc12 (stereo not given) | < 1000 nM |
| O=c1[nH][nH]c2ccc(-c3cc(Nc4n[nH]c5c(F)cc(F)cc45)c4ccccc4n3)c(C(F)(F)F)c12 | < 1000 nM |
| O=c1[nH][nH]c2ccc(-c3nc(Nc4n[nH]c5ccccc45)cc(Oc4ccccc4)n3)c(C(F)(F)F)c12 | < 1000 nM |
| O=c1[nH][nH]c2cc(NCCC(Nc3ccccn3)c3ccccc3)ccc12 (stereo not given) | < 1000 nM |
| CCc1cc(Nc2cc(C)[nH]n2)nc(CSc2ccc3[nH][nH]c(=O)c3c2)n1 | < 1000 nM |
| Cc1nc(-c2ccc3[nH][nH]c(=O)c3c2C(F)(F)F)nc(Nc2n[nH]c3ccccc23)c1C | < 1000 nM |
| O=c1[nH][nH]c2cc(SCCC(Nc3ccccn3)c3ccccc3)ccc12 (stereo not given) | < 1000 nM |
| O=c1[nH][nH]c2cc([C@@H]3C[C@H]3c3nc(Nc4n[nH]c5ccc(F)cc45)c4ccccc4n3)ccc12 | < 1000 nM |
| Cc1cnc(NC2CCC(Oc3ccc4c(=O)[nH][nH]c4c3)C2)s1 (stereo not given) | < 1000 nM |

Next, values leading:

| Ki | SMILES |
| --- | --- |
| < 1000 nM | O=c1[nH][nH]c2cc(NCC3CCCC3Nc3ccccn3)ccc12 (stereo not given) |
| < 1000 nM | O=c1[nH][nH]c2cc(NC3CCC(Nc4ccccn4)C3)ccc12 (stereo not given) |
| < 1000 nM | Cc1cc(Nc2nc(Nc3ccc4c(=O)[nH][nH]c4c3)nc3ccc(I)cc23)n[nH]1 |
| < 1000 nM | O=c1[nH][nH]c2cc(NCCC(Nc3cc(C4CC4)[nH]n3)c3ccccc3)ccc12 (stereo not given) |
| < 1000 nM | O=c1[nH][nH]c2ccc(-c3nc4c(c(Nc5n[nH]c6c(F)cccc56)n3)CCCCC4)c(Cl)c12 |
| < 1000 nM | N#Cc1cc2[nH][nH]c(=O)c2cc1-c1nc(Nc2n[nH]c3ccccc23)nc(N2CCCCC2)n1 |
| < 1000 nM | Cc1cc(Nc2nc(C(C)(C)c3ccc4c(=O)[nH][nH]c4c3)nc3c2CCCCC3)n[nH]1 |
| < 1000 nM | O=c1[nH][nH]c2cc(Sc3nc(Nc4n[nH]c5ccccc45)c4ccccc4n3)ccc12 |
| < 1000 nM | O=c1[nH][nH]c2cc(Sc3nc(Nc4cc(C5CC5)[nH]n4)cc(-c4ccccc4)n3)ccc12 |
| < 1000 nM | O=c1[nH][nH]c2cc(Nc3nc(Nc4cc(C5CC5)[nH]n4)cc(Oc4ccccc4)n3)ccc12 |
| < 1000 nM | Cc1cc(Nc2cc(Oc3ccc4c(=O)[nH][nH]c4c3)nc3ccccc23)n[nH]1 |
| < 1000 nM | O=c1[nH][nH]c2cc(OC3CCC(Nc4nccnn4)C3)ccc12 (stereo not given) |
| < 1000 nM | O=C(CC(=O)Nc1cc(C2CC2)[nH]n1)Nc1ccc2c(=O)[nH][nH]c2c1 |
| < 1000 nM | O=c1[nH][nH]c2cc(Nc3cc(Nc4n[nH]c5ccccc45)ccn3)ccc12 |
| < 1000 nM | O=c1[nH][nH]c2cc(SCCC(Nc3cc(C4CC4)[nH]n3)c3ccccc3)ccc12 (stereo not given) |
| < 1000 nM | Cn1cnc(NC2CCCC2CCc2ccc3c(=O)[nH][nH]c3c2)c1 (stereo not given) |
| < 1000 nM | C#Cc1c(-c2nc(Nc3n[nH]c(C)n3)c3ccccc3n2)ccc2[nH][nH]c(=O)c12 |
| < 1000 nM | Cc1cc(Nc2nc(Nc3ccc4c(=O)[nH][nH]c4c3)nc3c2CCCCC3)n[nH]1 |
| < 1000 nM | O=c1[nH][nH]c2cc(NOCCNc3ccccn3)ccc12 |
| < 1000 nM | O=c1[nH][nH]c2cc(C(F)(F)F)c(-c3nc4c(c(Nc5n[nH]c6ccc(F)cc56)n3)OCCCC4)cc12 |
| < 1000 nM | Cc1cc(Nc2cc(N3CCOCC3)nc(OCc3ccc4c(=O)[nH][nH]c4c3)n2)n[nH]1 |
| < 1000 nM | Cc1cc(Nc2cc(-c3ccccc3)[nH]n2)nc(-c2ccc3[nH][nH]c(=O)c3c2)n1 |
| < 1000 nM | O=c1[nH][nH]c2ccc(-c3nc4c(c(Nc5n[nH]c6c(F)cccc56)n3)CCCCCC4)c(C(F)(F)F)c12 |
| < 1000 nM | O=c1[nH][nH]c2cc(NCC3CCCC3Nc3nccnn3)ccc12 (stereo not given) |

| Ki | SMILES |
| --- | --- |
| < 1000 nM | Cc1cc(Nc2cc(C)[nH]n2)nc(C(C)(C)c2ccc3c(=O)[nH][nH]c3c2)n1 |
| < 1000 nM | CN(C)CCNc1nnc(Nc2n[nH]c3ccccc23)cc1-c1ccc2[nH][nH]c(=O)c2c1Cl |
| < 1000 nM | O=C(CCCc1ccc2c(=O)[nH][nH]c2c1)Nc1nccnn1 |
| < 1000 nM | Cc1cc(Nc2nc(Nc3ccc4c(=O)[nH][nH]c4c3)nc3ccccc23)n[nH]1 |
| < 1000 nM | O=c1[nH][nH]c2cc(Nc3nc(Nc4cc(C5CC5)[nH]n4)c4cc(-c5ccccc5)ccc4n3)ccc12 |
| < 1000 nM | O=c1[nH][nH]c2cc(COc3cc(Nc4n[nH]c5ccccc45)ccn3)ccc12 |
| < 1000 nM | O=c1[nH][nH]c2cc(Nc3cc(Nc4cc(C5CC5)[nH]n4)ncn3)ccc12 |
| < 1000 nM | Cn1cnc(NC2CCCC(Oc3ccc4c(=O)[nH][nH]c4c3)C2)c1 (stereo not given) |
| < 1000 nM | Cc1cc(Nc2nc(NCc3ccc4c(=O)[nH][nH]c4c3)cc3ccccc23)n[nH]1 |
| < 1000 nM | Cc1cc(Nc2nc(-c3cc4c(=O)[nH][nH]c4cc3C(F)(F)F)nc3cnoc23)n[nH]1 |
| < 1000 nM | O=C(CCNc1nccnn1)Oc1ccc2c(=O)[nH][nH]c2c1 |
| < 1000 nM | O=c1[nH][nH]c2ccc(OCc3cc4ccccc4c(Nc4cc(C5CC5)[nH]n4)n3)cc12 |
| < 1000 nM | O=c1[nH][nH]c2cc(C(F)(F)F)c(-c3nc4c(c(Nc5n[nH]c6ccc(F)cc56)n3)OCCC4)cc12 |
| < 1000 nM | O=c1[nH][nH]c2cc(CCC3COCC(Nc4ccccn4)C3)ccc12 (stereo not given) |
| < 1000 nM | Cc1cc(Nc2nc(Sc3ccc4c(=O)[nH][nH]c4c3)nc3c(O)cccc23)n[nH]1 |
| < 1000 nM | Cc1cccc2c(Nc3cc(-c4ccccc4)[nH]n3)nc(-c3ccc4[nH][nH]c(=O)c4c3OC(F)(F)F)nc12 |
| < 1000 nM | Cc1ccc2nc(Nc3ccc4c(=O)[nH][nH]c4c3)nc(Nc3cc(C4CC4)[nH]n3)c2n1 |
| < 1000 nM | Cc1cc(Nc2nc(Sc3ccc4c(=O)[nH][nH]c4c3)nc3cc(OCCCN4CCOCC4)ccc23)n[nH]1 |
| < 1000 nM | O=c1[nH][nH]c2ccc(-c3nc(Nc4n[nH]cc4-c4ccccc4)c4ccccc4n3)c(C(F)(F)F)c12 |
| < 1000 nM | COc1cccc2c(Nc3cc(C)[nH]n3)nc(Sc3ccc4c(=O)[nH][nH]c4c3)nc12 |
| < 1000 nM | CCc1cc(Nc2cc(C)[nH]n2)nc(C(C)(C)c2ccc3c(=O)[nH][nH]c3c2)n1 |
| < 1000 nM | CC(=O)Nc1cccc(-c2cc(Nc3cc(C)[nH]n3)nc(Oc3ccc4c(=O)[nH][nH]c4c3)n2)c1 |
| < 1000 nM | COc1nc(Nc2ccc3c(=O)[nH][nH]c3c2)nc(Nc2cc(C3CC3)[nH]n2)n1 |
